Laboratory results: EP0982028A1, “New use of taxoid derivatives” (RHONE-POULENC RORER S.A., priority 1998, dated 2000)
≈ marks a conversion by molar mass, not a printed value. Where “and” joins values, the source holds several entries; their conditions need not be identical. Equal entries are not always repeated. Entries after “also recorded” stand apart in the source; their conditions may differ. Where two headings read alike, the source gives them in different places.

How the values were obtained:
colon adenocarcinoma C51 = assay: In vivo antitumor activity against colon adenocarcinoma C51; design: species or system BALB/c female mice; conditions: for T-C: tumor to reach 750 mg
Protocol: (§1) In vivo schedule of administration and antitumor efficacy studies were carried out using a preclinical standard formulation of Product of formula Ia in ethanol: polysorbate 80 (50:50, v/v). After dilution, the final concentration was 5 % ethanol, 5 % polysorbate, 90 % glucose-5 % in water.
(§2) Product of formula Ia was administered by the intravenous route (i.v.). The experiments and data analyses were done according to standard protocols.
The activity end points used to assess subcutaneously implanted solid tumors were: • tumor growth inhibition, T/C, where T and C are the median tumor weights in mg of the treated and the control groups, respectively. […] A T/C < 10 %, ++, is considered as a high antitumor activity level which justifies further development (DN-2 level).
(§3) In cases of high antitumor activity, the two following end points were also used: • tumor growth delay, T-C, where T and C are the median times in days required for the treatment group and the control group tumors to reach a predetermined size (750 to 1500 mg). • log cell kill, which is the logarithm of the total number of cells killed by treatment.
(§4) Toxicity was based on drug deaths (≥ 10 %) or a weight loss nadir > 20 %. Docetaxel was used for comparison trials when needed.
Product of formula Ia was administered i.v. on day 4, 6, 8. […] The dosage below yielded a 2.2 log cell kill.

P388/DOX = conditions: IC50 on resistant cells divided by IC50 on sensitive cells, 4 days of continuous exposure
Protocol: (§5) The resistance factor was calculated by dividing the IC50 value obtained on resistant cells by the IC50 value obtained on sensitive cells.

P388/TXT = conditions: IC50 resistant / IC50 sensitive cells, 4 days of continuous exposure
Protocol: as §5

HL60/TAX = conditions: IC50 resistant / IC50 sensitive cells, 4 days of continuous exposure
Protocol: as §5

[1] = system: advanced colon adenocarcinoma C38; assay: In vivo antitumor activity against advanced stage colon adenocarcinoma C38; design: species or system B6D2F1 female mice; conditions: for T-C: tumor to reach 1000 mg
Protocol: as §1, §2, §3
For advanced stage tumors, regressions can be either partial (more than 50 % reduction in tumor mass) or complete. Complete regressions are included in the partial regressions.
as §4
Product of formula Ia was administered i.v. to mice bearing 200 to 400 mg of tumor. […] In comparison, docetaxel at the HNTD produced only 40 % partial regressions in the same trial.

P388/VCR = conditions: IC50 resistant / IC50 sensitive cells, 4 days of continuous exposure
Protocol: as §5

Calc18/TXT = conditions: IC50 resistant / IC50 sensitive cells, 4 days of continuous exposure
Protocol: as §5

KB V1 = conditions: IC50 resistant / IC50 sensitive cells, 4 days of continuous exposure
Protocol: as §5

P388/CPT5 cell line = conditions: P388/CPT5, acquired resistance to camptothecin, no P-glycoprotein
Protocol: as §5

[2] = system: human colon adenocarcinoma CaCo-2 cell line (ATCC HTB37); assay: In vitro growth inhibition on CaCo-2 cell line (neutral red); assay type: cell-based
Protocol: The methodology was used, i.e., 96 well plates, time of contact of the drugs (96 hours) and neutral red coloration of viable cell. Results expressed as IC50, were summarized in the next table.

[3] = 5.8 mg/kg per injection i.v., days 4,6,8
[4] = 9.3 mg/kg per injection i.v., days 4,6,8
[5] = 15.0 mg/kg per injection i.v., days 4,6,8
[6] = 24.2 mg/kg per injection i.v., days 4,6,8
[7] = 7.7 mg/kg per injection i.v., days 14,17,20
[8] = 12.4 mg/kg per injection i.v., days 14,17,20
[9] = 20.0 mg/kg per injection i.v., days 14,17,20
[10] = 32.2 mg/kg per injection i.v., days 14,17,20

Row | Compound | Comments (colon adenocarcinoma C51; [3]) | T/C in % day 18 (colon adenocarcinoma C51; [3]) [%] | log cell kill total (colon adenocarcinoma C51; [3]) | T-C (colon adenocarcinoma C51; [3]) [days] | Comments (colon adenocarcinoma C51; [4]) | T/C in % day 18 (colon adenocarcinoma C51; [4]) [%] | log cell kill total (colon adenocarcinoma C51; [4]) | T-C (colon adenocarcinoma C51; [4]) [days] | Comments (colon adenocarcinoma C51; [5]) | Comments (colon adenocarcinoma C51; [6]) | Resistance factor (P388/DOX) | Resistance factor (P388/TXT) | Resistance factor (HL60/TAX) | Comments [1, 7] | Complete regressions [1, 7] | log cell kill total [1, 7] | T-C [1, 7] [days] | Comments [1, 8] | Complete regressions [1, 8] | Resistance factor (P388/CPT5 cell line) | further results
1 | 4α-acetoxy-2α-benzoyloxy-5β,20-epoxy-1β-hydroxy-7β,10β-dimethoxy-9-oxo-11-taxen-13α-yl (2R,3S)-3 tert-butoxycarbonylamino-2-hydroxy-3-phenylpropionate [Product of formula Ia] | Active | 0 | 2.2 | 21.9 | highly active; also recorded: HNTD active | 0 | 2.6 | 25.8 | Toxic | Toxic | 10.0 | 1.8 | 2.5 | Active | 2/5 | 2.7 | 25.0 | Highly active | the same number of complete regressions and 5/5 | 4.8 | DD = drug death (colon adenocarcinoma C51; [5]): 1/5; DD = drug death (colon adenocarcinoma C51; [6]): 5/5; HNTD = highest nontoxic dose (colon adenocarcinoma C51; i.v. on day 4, 6, 8, C51-bearing mice): 9.3 mg/kg/injection; Resistance factor (P388/DOX; listed as product of formula Ia): 10; TFS = tumor free survivors observed on day 139 [1, 8]: 4/5; tumor free survivors ([1]; 12.4 mg/kg/injection i.v.): 80%; Comments [1, 9]: HNTD highly active; Complete regressions [1, 9]: 5/5; TFS = tumor free survivors observed on day 139 [1, 9]: all mice being tumor free survivors and 5/5; Comments [1, 10]: Toxic; DD = drug death [1, 10]: 1/5; HNTD = highest nontoxic dose ([1]; i.v., mice bearing 200 to 400 mg of tumor): 20 mg/kg/injection; Resistance factor (P388/VCR): 1.8; Resistance factor (Calc18/TXT): 4.3; Resistance factor (KB V1): 7.6
2 | CC(=O)O[C@@]12CO[C@@H]1C[C@H](O)[C@@]1(C)C(=O)[C@H](O)C3=C(C)[C@@H](OC(=O)[C@H](O)[C@@H](NC(=O)OC(C)(C)C)c4ccccc4)C[C@@](O)([C@@H](OC(=O)c4ccccc4)[C@H]21)C3(C)C [Docetaxel] | Active | 4 | 0.9 | 8.9 | Active | 0 | 2.2 | 22.4 | HNTD highly active | Toxic | 50.7 | 4.8 | 8.1 | Inactive | 0/5 | 0.3 | 2.5 | Marginal activity | 0/5 | 10.5 | IC50 ([2]; Homo sapiens, 96 well plates, 96 hours contact, neutral red): 0.108 ± 0.017 µg/mL (≈ 0.134 µM); IC50 on CaCo-2 cells relative to Product of formula Ia ([2]; IC50 docetaxel versus IC50 Product of formula Ia): 4.9 times; T/C in % day 18 (colon adenocarcinoma C51; [5]): 0%; log cell kill total (colon adenocarcinoma C51; [5]): 3.1; T-C (colon adenocarcinoma C51; [5]): 31.1 days; bwl = body weight loss (colon adenocarcinoma C51; [6]): 22.8%; Resistance factor (P388/DOX; listed as docetaxel): 50; log cell kill total [1, 8]: 0.7; T-C [1, 8]: 6.1 days; Comments [1, 9]: HNTD highly active; Complete regressions [1, 9]: 0/5; log cell kill total [1, 9]: 3.1; T-C [1, 9]: 29.1 days; Comments [1, 10]: Toxic; bwl = body weight loss [1, 10]: 20.6%; partial regressions ([1]; at the HNTD, partial = more than 50 % reduction in tumor mass): 40%; Resistance factor (P388/VCR): 5.8; Resistance factor (Calc18/TXT): 23.5; Resistance factor (KB V1): 59.0; Resistance factor (KB V1; listed as docetaxel): 59
3 | CC[C@@]1(O)C(=O)OCc2c1cc1n(c2=O)Cc2cc3ccccc3nc2-1 [camptothecin] |  |  |  |  |  |  |  |  |  |  |  |  |  |  |  |  |  |  |  | 286 | 
